# Measurements reported in article PMC3691600, “Conversion of fatty aldehydes into alk (a/e)nes by in vitro reconstituted cyanobacterial aldehyde-deformylating oxygenase with the cognate electron transfer system” (Biotechnology for Biofuels, 2013).
# Molecular target: FNR (SynPcc7942_0978) (Synechococcus elongatus, UniProt Q31PL1)
# Assay: UV/vis absorption spectrum of purified enzyme
# Type: binding
# Conditions: noncovalently bound; as purified; flavin identity inferred from spectrum and FNR homology
# FNR (SynPcc7942_0978), sequence (Q31PL1 1-403): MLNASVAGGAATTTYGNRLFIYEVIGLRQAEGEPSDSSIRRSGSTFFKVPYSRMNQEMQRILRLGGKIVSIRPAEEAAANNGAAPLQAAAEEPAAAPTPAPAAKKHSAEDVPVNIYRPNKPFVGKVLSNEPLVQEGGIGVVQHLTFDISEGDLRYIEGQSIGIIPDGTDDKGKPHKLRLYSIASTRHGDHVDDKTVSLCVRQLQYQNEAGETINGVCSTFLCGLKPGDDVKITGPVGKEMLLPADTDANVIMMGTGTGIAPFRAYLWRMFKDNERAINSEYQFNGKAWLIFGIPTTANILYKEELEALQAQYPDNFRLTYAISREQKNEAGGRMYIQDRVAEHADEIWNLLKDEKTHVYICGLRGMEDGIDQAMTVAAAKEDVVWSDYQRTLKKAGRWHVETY
smiles,measurement,value
Cc1cc2nc3c(=O)[nH]c(=O)nc-3n(C[C@H](O)[C@H](O)[C@H](O)COP(=O)(O)OP(=O)(O)OC[C@H]3O[C@@H](n4cnc5c(N)ncnc54)[C@H](O)[C@@H]3O)c2cc1C [FAD],UV/vis absorption spectrum of purified enzyme,demonstrating that FNR is certainly a flavoprotein
